Data as given in patent EP3638283B1, “ANTAGONISTS OF CAV2.3 R-TYPE CALCIUM CHANNELS FOR THE TREATMENT OF NEURODEGENERATIVE DISEASES” (Lario Therapeutics Ltd., priority 2017, dated 2018).
Like-named read-outs stand apart in the source and are kept apart here.

Legend:
[1] = system: SN DA neurons; details: neurotoxin PD-mouse models; pharmacological L-type calcium channel inhibition (Ilijic et al., 2011; Ortner et al., 2017); cited from earlier work
[2] = system: SN DA neurons; test: Dopamine auto-inhibition of SN DA neuron pacemaker activity, patch-clamp recordings in mouse brain slices; type: cell-based; details: isradipine 300nM; dopamine 100 µM
[3] = Parkinson Study, 2013; cited from earlier work
[4] = system: SN DA neurons; details: cited from earlier work
[5] = target: T1, voltage-sensitive A-type Kv4.3 K+ channels (Homo sapiens, UniProt Q9UK17); details: Kimm & Bean 2014; cited from earlier work
T1 sequence (Q9UK17 1-655): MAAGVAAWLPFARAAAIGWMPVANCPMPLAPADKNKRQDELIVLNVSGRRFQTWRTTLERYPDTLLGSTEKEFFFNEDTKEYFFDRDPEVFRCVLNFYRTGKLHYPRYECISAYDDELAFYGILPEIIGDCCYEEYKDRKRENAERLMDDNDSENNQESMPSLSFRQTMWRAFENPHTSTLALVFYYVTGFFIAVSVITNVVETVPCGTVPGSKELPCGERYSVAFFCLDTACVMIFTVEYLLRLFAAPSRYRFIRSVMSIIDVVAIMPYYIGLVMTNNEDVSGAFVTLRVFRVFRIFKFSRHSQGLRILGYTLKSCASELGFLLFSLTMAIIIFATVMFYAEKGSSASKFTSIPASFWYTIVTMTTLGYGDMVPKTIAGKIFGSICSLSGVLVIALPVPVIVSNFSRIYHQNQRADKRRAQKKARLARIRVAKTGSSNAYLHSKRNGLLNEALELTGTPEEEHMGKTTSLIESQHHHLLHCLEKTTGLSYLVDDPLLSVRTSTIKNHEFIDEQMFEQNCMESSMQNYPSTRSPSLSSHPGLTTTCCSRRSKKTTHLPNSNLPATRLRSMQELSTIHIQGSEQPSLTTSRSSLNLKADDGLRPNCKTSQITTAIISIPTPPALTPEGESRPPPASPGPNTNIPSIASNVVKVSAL

[6] = system: SN DA neurons; type: cell-based, mouse
[7] = system: SN DA neurons; type: cell-based, mouse; remark: listed apart in the source

## COC(=O)C1=C(C)NC(C)=C(C(=O)OC(C)C)C1c1cccc2nonc12 (stereo not drawn) [isradipine]
[1]
  SN DA neuroprotection: inconclusive findings
[2]
  sensitized dopamine-autoinhibition of SN DA neurons: did not substantially alter
[3]
  maximal tolerable dosis: 10 mg/day
[4]; cell body of WT SN DA neurons, in the presence of isradipine (Ortner et al., 2017)
  somatic activity-dependent Ca^2+ oscillations: not significantly affected
[4]; distal dendrites versus cell-bodies (Guzman et al., 2010; Ortner et al.)
  sensitivity of activity-dependent Ca^2+ oscillations in SN DA neurons to the blocker: only in distal dendrites but not in the cell-bodies

## SNX-482
[5]
  affinity of inhibition of A-type Kv4.3 K+ channels: high nanomolar affinity
[6]
  D2-AR responses of adult SN DA neurons (dopamine-autoinhibition): desensitized D2-AR responses
[7]
  action potential-induced somatic Ca^2+ transients: significantly reduced

## ω-conotoxin MVIIC [[…]-conotoxin MVIIC]
[6]
  sensitized dopamine-autoinhibition of SN DA neurons: did not substantially alter
